Measurements published in ChEMBL document CHEMBL1157163, “In vitro permeability and metabolic stability of bile pigments and the effects of hydrophilic and lipophilic modification of biliverdin” (Bioorg Med Chem, 2008).

Experiments:
[1] = Toxicity against rat erythrocytes assessed as hemolysis upto 1000 uM; assay type: cell-based; conditions: erythrocyte
[2] = Apparent permeability across human Caco-2 cells; assay type: ADME, cell-based
Caco-2 = test: Metabolic stability in human Caco-2 cell homogenate; assay type: ADME, cell-based
[3] = Metabolic stability in presence of BSA; assay type: ADME
[4] = Toxicity against rat erythrocytes assessed as hemolysis upto 1000 uM in presence of BSA; assay type: cell-based; conditions: erythrocyte
[5] = Apparent permeability across human Caco-2 cells in presence of BSA in basolateral chamber; assay type: ADME, cell-based
[6] = Toxicity against rat erythrocytes assessed as decrease in hemolysis in presence of BSA; assay type: cell-based; conditions: erythrocyte
[7] = Toxicity against rat erythrocytes assessed as induction of hemolysis at >= 1000 uM; assay type: cell-based; conditions: erythrocyte

Compound | Activity [1] | Papp [2] | Stability (Caco-2) | Stability [3] | Activity [4] | Papp [5] | Activity [6] | Activity [7]
C=CC1=C(C)/C(=C/c2[nH]c(Cc3[nH]c(/C=C4\NC(=O)C(C)=C4C=C)c(C)c3CCC(=O)NCCS(=O)(=O)O)c(CCC(=O)NCCS(=O)(=O)O)c2C)NC1=O [BILIRUBIN DITAURATE] | Non-toxic | 0.39 ×10⁻⁶ cm/s | Stable | Stable | Non-toxic | 3.52 ×10⁻⁶ cm/s | – | –
C=CC1=C(C)/C(=C/C2=NC(=C\c3[nH]c(/C=C4\NC(=O)C(C)=C4C=C)c(C)c3CCC(=O)O)/C(CCC(=O)O)=C2C)NC1=O [BILIVERDIN] | Non-toxic | 1.01 ×10⁻⁶ cm/s | Stable | Stable | Non-toxic | 3.7 ×10⁻⁶ cm/s | – | –
C=CC1=C(C)/C(=C/c2[nH]c(Cc3[nH]c(/C=C4\NC(=O)C(C)=C4C=C)c(C)c3CCC(=O)O)c(CCC(=O)O)c2C)NC1=O [BILIRUBIN] | – | 0.02 ×10⁻⁶ cm/s | – | 0.33 %/min | – | 1.04 ×10⁻⁶ cm/s | Non-toxic | Toxic
C=CC1=C(C)/C(=C/C2=NC(=C\c3[nH]c(/C=C4\NC(=O)C(C)=C4C=C)c(C)c3CCC(=O)N[C@H]3C(O)O[C@H](CO)[C@@H](O)[C@@H]3O)/C(CCC(=O)N[C@@H]3C(O)O[C@@H](CO)[C@H](O)[C@H]3O)=C2C)NC1=O (some centres undefined) [BILIVERDIN DIGLUCOSAMINE] | – | – | Stable | Stable | – | – | – | –
